Assay: Stability of the compound during isolation
Assay type: physicochemical
Conditions: isolation from culture
Source text: Authors' possible answers (A) to the comments (C) raised by Reviewer #2.
This manuscript by Kudo et al. describes the combined application of in vitro CRIPS-Cas9 and Gibson assembly technology to edit type 1 modular PKSs. Authors […]
module deletion/insertion, reductive domains, stereochemistry of beta-hydroxyl group, and double modification (ER and KR) using rapamycin PKS as a model system. Although in vitro CIRPR/Cas9 system for refactoring of biosynthetic gene clusters in Streptomyces has been reported previously (mBio 6(6):e01714-15), this manuscript may be the first report to use CIRPR/Cas9 technology to edit the large modular PKSs.
We thank Reviewer #2 for the positive evaluation of our technology. Since the engineering […]
(C-1) Although the method used in this study seems promising to edit PKS efficiently, authors should present the complete structural data (e.g. 1D and 2D NMR) of all […]
(A-1) We have added NMR data for compounds 10, 11 , 12, 13, 15 and 16, whose yields were high enough allow their analysis by NMR. In addition, we confirmed the quantitative analysis of all compounds (Supplementary Table 3). […]
smaller m/z than that of 5 (Figs. A(d) and (e)). Multiple degradation products were detected (Fig. B) and those peaks were not detectable from crude extract before isolation.
We measured a NMR spectrum of the collected sample (ca 0.8 mg), however, the sample […]

Compound: CO[C@H]1C[C@@H]2CC[C@@H](C)[C@@](O)(O2)C(=O)C(=O)N2CCCC[C@H]2C(=O)O[C@H]([C@H](C)C[C@@H]2CC[C@@H](O)[C@H](OC)C2)CC(=O)[C@H](C)/C=C(\C)[C@@H](O)[C@@H](OC)C(=O)[C@H](C)CC/C=C/C=C/C=C/1C [Compound 5, 23-demethyl rapamycin]
- Stability during isolation, in words: instability

Compound: CO[C@@H]1C[C@H](C[C@@H](C)[C@@H]2CC(=O)[C@H](C)/C=C(\C)[C@@H](O)CC(=O)[C@H](C)/C=C(C)/C=C/C=C/C=C(\C)[C@H](O)C[C@@H]3CC[C@@H](C)[C@@](O)(O3)C(=O)C(=O)N3CCCC[C@H]3C(=O)O2)CC[C@H]1O [Compound 19, 27-demethoxy-16-O-demethyl-23,24-didehydro-rapamycin]
- Stability during isolation, in words: so unstable that we could not isolate it

Source: article PMC7419507, “In vitro Cas9-assisted editing of modular polyketide synthase genes to produce desired natural product derivatives” (Nature Communications, 2020)
